# US7803801B2, “Aminopyridine compounds having Syk inhibitory activity” (Japan Tobacco, Inc., priority 2005, dated 2010)
# pIC50: −log10 of the molar value.
# Assays:
# [1] = biological target: GST-Syk Full Protein (human) (Homo sapiens, UniProt P43405); experiment: Syk kinase inhibition test (HTRF method); assay type: biochemical; conditions: HTRF, 100 μM ATP, 30 min room temperature, average; read-out: sykHTRF ave IC50
# Procedure, shortened: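 Human GST-Syk full-length (6.4 nM) phosphorylated biotin-EDPDYEWPSA-NH2 (250 nM) with 100 μM ATP in HEPES pH 7.0/MgCl2 buffer, 2% DMSO, 30 min at room temperature. EDTA stop, then HTRF detection (streptavidin-XL665, Eu anti-phosphotyrosine) after 1 h; 665/620 ratio read.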
# [2] = tested on: cultured human mast cells; experiment: Degranulation inhibition test using cultured human mast cells (IgE cross-linking, β-Hexosaminidase release); assay type: cell-based; conditions: Mast cell; cultured human mast cells, anti-hIgE stimulation, β-Hexosaminidase index, average; read-out: human degranulation ave. IC50
# Experimental: Degranulation Inhibition Test Using Cultured Human Mast Cells
# (1) Separation of Hematopoietic Stem Cells;
# After 10 to 60 mL of umbilical cord blood collected with heparin was diluted with an equivalent amount of buffer (0.5% BSA, 2 mM EDTA/PBS-), it was superposed on Ficoll-Paque (Amersham Pharmacia Biotech) (Ficoll/Blood (1:2)) and mononuclear leukocyte fraction was collected by centrifuging it at 400 G (1350 rpm) 4° C. for 30 minutes. After centrifugal washing (1500 rpm, 5 min, 4° C.×3) with buffer, the number of cells was counted and 0.1 mL of CD34 Progenitor Cell Isolation Kit (Miltenyi Biotec), Reagent A1 (Fc blocking) was added for 1×10^8 cells. After agitation, 0.1 mL of Reagent A2 (CD34 antibody-hapten) was added (final volume 0.5 mL/1×10^8 cells) and incubated at 9° C. for further 15 minutes after agitation. After centrifugal washing (1500 rpm, 5 min, 4° C.×3), it was resuspeded in a buffer (0.4 mL) and 0.1 mL of Reagent B (anti hapten antibody-microbeads) was added and agitated (final volume 0.5 mL/1×10^8 cells) and incubated at 9° C. for further 15 minutes. After centrifugal washing (1500 rpm, 5 min, 4° C.×2), it was resuspeded in a buffer (0.5 mL) and loaded on CS column (Miltenyi Biotec) set in MACS (MAgnetic Cell Sorting system; Miltenyi Biotec, Daiichi Pure Chemicals) and washed with 30 mL of buffer to remove CD34^− cells. The column was separated from MACS and eluted with 30 mL of buffer and CD34^+ cells bound to the column were collected and used as a hematopoietic stem cell population.
# (2) Acquisition of Human Mast Cells by Long-Term Culturing of Hematopoietic Stem Cells;
# The CD34^+ cells separated in (1) were resuspended in Iscove's Modified Dulbecco's Medium (IMDM, Gibco) containing human (rh)SCF (1 μg/mL, Peprotech), rhIL-6 (0.5 μg/mL, Peprotech), rhIL-3 (10 ng/mL, Peprotech), 1% Insulin-Transferrin (Gibco), 5×10^−5M 2-ME (Gibco), 0.1% BSA (Sigma) in a density of 1×10^6 cells/ml and disseminated on 24-well culture plate with a dose of 0.1 mL/well and 0.9 ml of IMDM (Methocult SF^BIT StemCell technology) containing 0.9% methyl cellulose was added and culturing was started. The above culture medium (excluding methyl cellulose) was added in a week and after that 100 μL/well of the above culture medium (further excluding IL-3) was added at an interval of every once a week so that cells were diluted to maintain 10^5 cells/mL/well order and cultured more than about 8 weeks and thereby human culture mast cells were obtained.
# (3) Expression Enhancement of FcεRI and Inhibition Test IgE Cross-Linking Stimulating Degranulation;
# rhIL-4 (final concentration 1 ng/mL, R & D) and Homo sapiens(h) IgE (final concentration 0.5 μg/mL, CHEMICON) were added to the obtained human culture mast cells, and they were incubated for 5 days to enhance the expression of FcεRI. After incubation, cells were collected and, after centrifugal washing (IMDM), they were disseminated on 96-well culture plate in 5×10^4 cells/80 μL/well.
# 10 μL of a compound 10-fold diluted with IMDM after dissolved in DMSO (DMSO final concentration 0.1%) was added and reacted at 37° C. for 10 minutes. Further, 10 μL of anti-hIgE Ab (CHEMICON) adjusted to 100 μg/mL (final concentration 10 μg/mL) was added and degranulation was caused by being stimulated at 37° C. for 30 minutes. After centrifugation, 50 μL/well of the supernatant was collected and stored at −40° C. untill the quantity of degranulation was measured. The measurement of quantity of degranulation was performed using enzymatic activity of β-Hexosaminidase contained in the granulates as an index. That is, an equivalent amount of p-nitrophenyl-N-acetyl-β-D-glucosaminide (1 mM) (containing 0.1% Triton X-100) which is a substrate of β-Hexosaminidase was added to 50 μL of the culture filtrate, and after reacted at 37° C. for 2 hours, the reaction was terminated by using 100 μL of Carbonate buffer (0.1M, pH 10). […]
SMILES,pIC50 [1],pIC50 [2]
"CON(C)C(=O)c1ncc(-c2cccc(Nc3cc(C)ccn3)n2)s1 [Compound A-46, N-methoxy-N-methyl-5-[6-(4-methylpyridin-2-ylamino)pyridin-2-yl]thiazole-2-carboxamide]",> 7.00,6.00 to 7.00
"CNC(=O)c1ncc(-c2cccc(Nc3cc(C)ccn3)n2)s1 [Compound A-47, N-methyl-5-[6-(4-methylpyridin-2-ylamino)pyridin-2-yl]thiazole-2-carboxamide]",> 7.00,6.00 to 7.00
CC(=O)N1CCC[C@H]1c1ncc(-c2cccc(Nc3cc(C)ccn3)n2)s1 [Compound A-48],6.00 to 7.00,6.00 to 7.00
Cc1ccnc(Nc2cccc(-c3cnc([C@H](CCCCNC(=O)OC(C)(C)C)NC(=O)OCc4ccccc4)s3)n2)c1 [Compound A-49],< 6.00,< 6.00
Cc1ccnc(Nc2cccc(-c3cnc([C@H](C)N(C)C(=O)OC(C)(C)C)s3)n2)c1 [Compound A-50],6.00 to 7.00,< 6.00
CN[C@@H](C)c1ncc(-c2cccc(Nc3cc(C)ccn3)n2)s1 [Compound A-51],6.00 to 7.00,6.00 to 7.00
"CC(=O)N(C)[C@@H](C)c1ncc(-c2cccc(Nc3cc(C)ccn3)n2)s1 [Compound A-52, N-methyl-((S)-1-{5-[6-(4-methylpyridin-2-ylamino)pyridin-2-yl]thiazol-2-yl}ethyl)acetamide]",> 7.00,6.00 to 7.00
Cc1ccnc(Nc2cccc(-c3cnc(C(=O)NCCCO)s3)n2)c1 [Compound A-53],6.00 to 7.00,6.00 to 7.00
Cc1ccnc(Nc2cccc(-c3cnc(C(=O)NC(C)CO)s3)n2)c1 (centres unmarked) [Compound A-54],6.00 to 7.00,< 6.00
"Cc1ccnc(Nc2cccc(-c3cnc([C@@H]4CCC(=O)N4)s3)n2)c1 [Compound A-55, (S)-5-{5-[6-(4-methylpyridin-2-ylamino)pyridin-2-yl]thiazol-2-yl}pyrrolidin-2-one]",> 7.00,6.00 to 7.00
Cc1ccnc(Nc2cccc(-c3cnc([C@H](C)NC(=O)N(C)C)s3)n2)c1 [Compound A-56],6.00 to 7.00,6.00 to 7.00
COC(=O)N[C@@H](C)c1ncc(-c2cccc(Nc3cc(C)ccn3)n2)s1 [Compound A-57],6.00 to 7.00,6.00 to 7.00
Cc1ccnc(Nc2cccc(-c3cnc([C@H](C)NS(C)(=O)=O)s3)n2)c1 [Compound A-58],6.00 to 7.00,6.00 to 7.00
CC(=O)N[C@@H](CO)c1ncc(-c2cccc(Nc3cc(C)ccn3)n2)s1 [Compound A-59],6.00 to 7.00,6.00 to 7.00
Cc1ccnc(Nc2cccc(-c3cnc(C4CCC(=O)CC4)s3)n2)c1 [Compound A-60],6.00 to 7.00,6.00 to 7.00
Cc1ccnc(Nc2cccc(-c3cnc(C(=O)N4CCCC(O)C4)s3)n2)c1 (centres unmarked) [Compound A-61],6.00 to 7.00,6.00 to 7.00
Cc1ccnc(Nc2cccc(-c3cnc(C(=O)NCC(C)(C)CO)s3)n2)c1 [Compound A-62],6.00 to 7.00,< 6.00
CC(=O)NCCCC[C@H](NC(C)=O)c1ncc(-c2cccc(Nc3cc(C)ccn3)n2)s1 [Compound A-64],6.00 to 7.00,6.00 to 7.00
Cc1ccnc(Nc2cccc(-c3cnc([C@H](C)NC(C)C)s3)n2)c1 [Compound A-65],6.00 to 7.00,6.00 to 7.00

SMILES,pIC50 [1],pIC50 [2]
Cc1ccnc(Nc2cccc(-c3cnc(C(=O)NCC(C)O)s3)n2)c1 (centres unmarked) [Compound A-66],6.00 to 7.00,< 6.00
Cc1ccnc(Nc2cccc(-c3cnc(C(=O)NC4CCCCC4O)s3)n2)c1 (centres unmarked) [Compound A-67],6.00 to 7.00,< 6.00
COC(=O)CCCCc1ncc(-c2cccc(Nc3cc(C)ccn3)n2)s1 [Compound A-68],6.00 to 7.00,< 6.00
"Cc1ccnc(Nc2cccc(-c3cnc(CCCCC(=O)O)s3)n2)c1 [Compound A-69, 5-{5-[6-(4-methylpyridin-2-ylamino)pyridin-2-yl]thiazol-2-yl}pentanoic acid]",> 7.00,< 6.00
"Cc1ccnc(Nc2cccc(-c3cnc(CCCCCO)s3)n2)c1 [Compound A-70, 5-{5-[6-(4-methylpyridin-2-ylamino)pyridin-2-yl]thiazol-2-yl}pentan-1-ol]",> 7.00,6.00 to 7.00
"Cc1ccnc(Nc2cccc(-c3cnc(CCCCC(N)=O)s3)n2)c1 [Compound A-71, 5-{5-[6-(4-methylpyridin-2-ylamino)pyridin-2-yl]thiazol-2-yl}pentanamide]",> 7.00,6.00 to 7.00
Cc1ccnc(Nc2cccc(-c3cnc(C(=O)NC(CO)CO)s3)n2)c1 [Compound A-72],6.00 to 7.00,< 6.00
"Cc1ccnc(Nc2cccc(-c3cnc(C4CCC(O)CC4)s3)n2)c1 (centres unmarked) [Compound A-73, 4-{5-[6-(4-methylpyridin-2-ylamino)pyridin-2-yl]thiazol-2-yl}cyclohexanol]",> 7.00,6.00 to 7.00
"Cc1ccnc(Nc2cccc(-c3cnc(C4CCC(=NO)CC4)s3)n2)c1 (centres unmarked) [Compound A-74, 4-{5-[6-(4-methylpyridin-2-ylamino)pyridin-2-yl]thiazol-2-yl}cyclohexanone oxime]",> 7.00,< 6.00
"C[C@H](N)c1ncc(-c2cccc(Nc3cc(-c4ccncc4)ccn3)n2)s1 [Compound A-75, N-{6-[2-((S)-1-aminoethyl)thiazol-5-yl]pyridin-2-yl}-N-([4,4′]bipyridinyl-2-yl)amine]",> 7.00,6.00 to 7.00
COc1ccnc(Nc2cccc(-c3cnc([C@H](C)N)s3)n2)c1 [Compound A-76],6.00 to 7.00,6.00 to 7.00
COc1ccnc(Nc2cccc(-c3cnc([C@H](C)NC(C)=O)s3)n2)c1 [Compound A-77],6.00 to 7.00,6.00 to 7.00
Cc1ccnc(Nc2cccc(-c3cnc([C@@H](O)CO)s3)n2)c1 [Compound A-78],6.00 to 7.00,6.00 to 7.00
"CC(=O)N[C@@H](C)c1ncc(-c2cccc(Nc3cc(-c4ccncc4)ccn3)n2)s1 [Compound A-79, N—((S)-1-{5-[6-([4,4′]bipyridinyl-2-ylamino)pyridin-2-yl]thiazol-2-yl}ethyl)acetamide]",> 7.00,6.00 to 7.00
CC(=O)N[C@@H](C)c1ncc(-c2cccc(Nc3cc(OCc4ccccc4)ccn3)n2)s1 [Compound A-80],6.00 to 7.00,6.00 to 7.00
"CC(=O)N[C@@H](C)c1ncc(-c2cccc(Nc3cc(Cl)ccn3)n2)s1 [Compound A-81, N—((S)-1-{5-[6-(4-chloropyridin-2-ylamino)pyridin-2-yl]thiazol-2-yl}ethyl)acetamide]",> 7.00,6.00 to 7.00
"Cc1ccnc(Nc2cccc(-c3cnc([C@@H](O)C(C)C)s3)n2)c1 [Compound A-82, (S)-2-methyl-1-{5-[6-(4-methylpyridin-2-ylamino)pyridin-2-yl]thiazol-2-yl}propan-1-ol]",> 7.00,6.00 to 7.00
Cc1ccnc(Nc2cccc(-c3cnc(C(=O)C(C)C)s3)n2)c1 [Compound A-83],6.00 to 7.00,< 6.00
